Results published in the NIST ThermoML archive (doi:10.1021/acs.jced.6b00399).
Where a name gives a salt, the structure may show the parent alone. Numbers after ± are expanded uncertainties.

What was measured:
[1] = Liquid; for mass density: 101.3 kPa, Pycnometric method; for viscosity: 298.15 K, 101.33 kPa, Capillary tube (Ostwald / Ubbelohde) method
[2] = xn = mol fraction of the nth substance listed; conditions: 101.3 kPa, Liquid, x1 = 0.66; for mass density: Pycnometric method

Row | SMILES | mass density ([1]; 293.15 K) | viscosity [1] | mass density ([1]; 303.15 K) | mass density ([1]; 313.15 K) | mass density ([1]; 323.15 K) | mass density ([2]; 293.15 K) | viscosity ([2]; 298.15 K, Capillary tube (Ostwald / Ubbelohde) method) | mass density ([2]; 303.15 K) | mass density ([2]; 313.15 K) | mass density ([2]; 323.15 K)
1 | CCOC(=O)CC(O)(CC(=O)OCC)C(=O)OCC [triethyl citrate] | 1137.1 ± 2.6 kg/m3 | 32.1 ± 0.64 mPa·s | 1131.3 ± 2.6 kg/m3 | 1122.4 ± 2.6 kg/m3 | 1114 ± 2.5 kg/m3 |  |  |  |  | 
2 | CC(=O)OCC(COC(C)=O)OC(C)=O [glyceryl triethanoate] | 1158.3 ± 2.5 kg/m3 | 16.36 ± 0.68 mPa·s | 1147.3 ± 2.4 kg/m3 | 1136.6 ± 2.4 kg/m3 | 1125.7 ± 2.4 kg/m3 |  |  |  |  | 

The next lines start with the values.

Row | mass density ([1]; 293.15 K) | viscosity [1] | mass density ([1]; 303.15 K) | mass density ([1]; 313.15 K) | mass density ([1]; 323.15 K) | mass density ([2]; 293.15 K) | viscosity ([2]; 298.15 K, Capillary tube (Ostwald / Ubbelohde) method) | mass density ([2]; 303.15 K) | mass density ([2]; 313.15 K) | mass density ([2]; 323.15 K) | SMILES
3 | 1067.8 ± 2.4 kg/m3 | 10.06 ± 0.15 mPa·s | 1058.9 ± 2.4 kg/m3 | 1049.9 ± 2.4 kg/m3 | 1040.8 ± 2.4 kg/m3 |  |  |  |  |  | CC1(C)OCC(CO)O1 (stereo not given) [2,2-dimethyl-1,3-dioxolane-4-methanol]
4 | 1142.1 ± 3.4 kg/m3 | 46.55 ± 1.2 mPa·s | 1134.1 ± 3.3 kg/m3 | 1124.2 ± 3.3 kg/m3 | 1112.9 ± 3.3 kg/m3 |  |  |  |  |  | CCOC(=O)CC(CC(=O)OCC)(OC(C)=O)C(=O)OCC [triethyl acetyl citrate]
5 |  |  |  |  |  | 1215.1 ± 2.8 kg/m3 | 20.05 ± 0.84 mPa·s | 1206.7 ± 2.8 kg/m3 | 1198.2 ± 2.8 kg/m3 | 1189.7 ± 2.8 kg/m3 | OC1COCOC1 [1,3-dioxan-5-ol] + OCC1COCO1
